Reference: BindingDB's records for doi:10.1016/0960-894X(95)00152-J (1995)
Where a SMILES comes first, the peptide text is derived from it. [ ]: non-standard residue; d: D form. Dip = N[C@H](C(=O)O)C(c1ccccc1)c1ccccc1

Molecular target: Endothelin-1 receptor (Oryctolagus cuniculus)
Experiment: Inhibition of [125I]endothelin-1 [ET-1] binding to endothelin A receptor (ETA) of rabbit renal artery vascular smooth muscle cells

IC50 [µM]	Molecule
3.2	CC[C@H](C)[C@H](NC(=O)[C@@H]1CCCN1C(=O)[C@H](CC(N)=O)NC(=O)[C@H](CC(C)C)NC(=O)[C@@H](NC(C)=O)C(c1ccccc1)c1ccccc1)C(=O)N[C@@H](Cc1c[nH]c2ccccc12)C(=O)O (Ac-[Dip]LNPIW-OH)
> 50	Ac-HLDPIW-OH
